Converted amounts (≈) assume the structure as drawn.
How the values were obtained:
Assay in all cases: Antibacterial test (MIC), The Japan Chemotherapeutic Association method
Escherichia coli K-12 = type: cell-based; conditions: K12, Mueller Hinton Medium, 10^6 /ml, 37° C., determined after 24 hours
Experimental: (§1) Antibacterial activities against microorganisms shown in Tables 1-3 were measured according to the MIC measurement method of The Japan Chemotherapeutic Association. Sparfloxacin was used as a control agent.
(§2) Medium: Mueller Hinton Medium
(§3) A 1,000 micrograms/ml solution in 25% dimethylsulfoxide was prepared. A series of solutions with various concentrations (100 micrograms to 0.006 micrograms) were prepared by successively diluting the solution with sterilized water by a factor of 1/2.
(§4) Amount of inoculated bacteria: 10^6 /ml
(§5) Cultivation conditions: 37° C., 48 hours
(§6) Determination: After 24 hours.

[1] = tested on: Streptococcus faecalis IFO 12964; type: cell-based; conditions: Enterococcus faecalis, IFO12964, Mueller Hinton Medium, 10^6 /ml, 37° C., determined after 24 hours
Experimental: as §1, §2, §3, §4, §5, §6

[2] = tested on: Klebsiella pneumoniae ATCC 10031; type: cell-based; conditions: ATCC10031, Mueller Hinton Medium, 10^6 /ml, 37° C., determined after 24 hours
Experimental: as §1, §2, §3, §4, §5, §6

[3] = tested on: Bacillus subtilis ATCC 6633; type: cell-based; conditions: ATCC6633, Mueller Hinton Medium, 10^6 /ml, 37° C., determined after 24 hours
Experimental: as §1, §2, §3, §4, §5, §6

Sarcina lutea ATCC 9341 = type: cell-based; conditions: Micrococcus luteus, ATCC9341, Mueller Hinton Medium, 10^6 /ml, 37° C., determined after 24 hours
Experimental: as §1, §2, §3, §4, §5, §6

[4] = tested on: Pseudomonas aeruginosa P2; type: cell-based; conditions: Mueller Hinton Medium, 10^6 /ml, 37° C., determined after 24 hours
Experimental: as §1, §2, §3, §4, §5, §6

[5] = tested on: Staphylococcus aureus Smith; type: cell-based; conditions: Mueller Hinton Medium, 10^6 /ml, 37° C., determined after 24 hours
Experimental: as §1, §2, §3, §4, §5, §6

Shigella flexneri 2b = type: cell-based; conditions: Mueller Hinton Medium, 10^6 /ml, 37° C., determined after 24 hours
Experimental: as §1, §2, §3, §4, §5, §6

[6] = tested on: Micrococcus lysodeikticus IFO 3333; type: cell-based; conditions: Micrococcus luteus, IFO3333, Mueller Hinton Medium, 10^6 /ml, 37° C., determined after 24 hours
Experimental: as §1, §2, §3, §4, §5, §6

[7] = tested on: Pseudomonas aeruginosa IFO 12582; type: cell-based; conditions: IFO12582, Mueller Hinton Medium, 10^6 /ml, 37° C., determined after 24 hours
Experimental: as §1, §2, §3, §4, §5, §6

Salmonella typhi TD = type: cell-based; conditions: Salmonella enterica, 24 h
Experimental: as §1, §2, §3, §4, §5, §6

Escherichia coli O-1 = type: cell-based; conditions: O1, Mueller Hinton Medium, 10^6 /ml, 37° C., determined after 24 hours
Experimental: as §1, §2, §3, §4, §5, §6

[8] = tested on: Pseudomonas aeruginosa IFO 13736; type: cell-based; conditions: IFO13736, Mueller Hinton Medium, 10^6 /ml, 37° C., determined after 24 hours
Experimental: as §1, §2, §3, §4, §5, §6

[9] = tested on: Klebsiella pneumoniae IFO 13541; type: cell-based; conditions: IFO13541, Mueller Hinton Medium, 10^6 /ml, 37° C., determined after 24 hours
Experimental: as §1, §2, §3, §4, §5, §6

[10] = tested on: Staphylococcus epidermidis ATCC 12228; type: cell-based; conditions: ATCC12228, Mueller Hinton Medium, 10^6 /ml, 37° C., determined after 24 hours
Experimental: as §1, §2, §3, §4, §5, §6

Serratia marcescens NHL = type: cell-based; conditions: Mueller Hinton Medium, 10^6 /ml, 37° C., determined after 24 hours
Experimental: as §1, §2, §3, §4, §5, §6

Proteus rettgeri = type: cell-based; conditions: Providencia rettgeri, Mueller Hinton Medium, 10^6 /ml, 37° C., determined after 24 hours
Experimental: as §1, §2, §3, §4, §5, §6

[11] = tested on: Staphylococcus aureus Terashima; type: cell-based; conditions: Mueller Hinton Medium, 10^6 /ml, 37° C., determined after 24 hours
Experimental: as §1, §2, §3, §4, §5, §6

Proteus vulgaris OXK = type: cell-based; conditions: Mueller Hinton Medium, 10^6 /ml, 37° C., determined after 24 hours
Experimental: as §1, §2, §3, §4, §5, §6

[12] = tested on: Staphylococcus aureus FDA 209P; type: cell-based; conditions: FDA209P, Mueller Hinton Medium, 10^6 /ml, 37° C., determined after 24 hours
Experimental: as §1, §2, §3, §4, §5, §6

[13] = tested on: M. R. Staphylococcus aureus 420; type: cell-based, Methicillin-resistant Staphylococcus aureus; conditions: M. R. Staphylococcus aureus 420 (MRSA); Mueller Hinton Medium, 10^6 /ml, 37° C., determined after 24 hours
Experimental: as §1, §2, §3, §4, §5, §6

[14] = tested on: M. R. Staphylococcus aureus 419; type: cell-based, Methicillin-resistant Staphylococcus aureus; conditions: M. R. Staphylococcus aureus 419 (MRSA); Mueller Hinton Medium, 10^6 /ml, 37° C., determined after 24 hours
Experimental: as §1, §2, §3, §4, §5, §6

[15] = tested on: M. R. Staphylococcus aureus 415; type: cell-based, Methicillin-resistant Staphylococcus aureus; conditions: M. R. Staphylococcus aureus 415 (MRSA); Mueller Hinton Medium, 10^6 /ml, 37° C., determined after 24 hours
Experimental: as §1, §2, §3, §4, §5, §6

[16] = tested on: M. R. Staphylococcus aureus 395; type: cell-based, Methicillin-resistant Staphylococcus aureus; conditions: M. R. Staphylococcus aureus 395 (MRSA); Mueller Hinton Medium, 10^6 /ml, 37° C., determined after 24 hours
Experimental: as §1, §2, §3, §4, §5, §6

[17] = tested on: M. R. Staphylococcus aureus 421; type: cell-based, Methicillin-resistant Staphylococcus aureus; conditions: M. R. Staphylococcus aureus 421 (MRSA); Mueller Hinton Medium, 10^6 /ml, 37° C., determined after 24 hours
Experimental: as §1, §2, §3, §4, §5, §6

SMILES	MIC (Escherichia coli K-12) [µg/mL]	MIC [1] [µg/mL]	MIC [2] [µg/mL]	MIC [3] [µg/mL]	MIC (Sarcina lutea ATCC 9341) [µg/mL]	MIC [4] [µg/mL]	MIC [5] [µg/mL]	MIC (Shigella flexneri 2b) [µg/mL]	MIC [6] [µg/mL]	MIC [7] [µg/mL]	MIC (Salmonella typhi TD) [µg/mL]	MIC (Escherichia coli O-1) [µg/mL]	MIC [8] [µg/mL]	MIC [9] [µg/mL]	MIC [10] [µg/mL]	MIC (Serratia marcescens NHL) [µg/mL]	MIC (Proteus rettgeri) [µg/mL]	MIC [11] [µg/mL]	MIC (Proteus vulgaris OXK) [µg/mL]	MIC [12] [µg/mL]	other results
CN1CCN(c2c(F)c(N)c3c(=O)c(C(=O)O)cn(C4CC4)c3c2F)CCC1=O [1-8, 5-Amino-1-cyclopropyl-6,8-difluoro-7-(4-methyl-2,3,4,5,6,7-hexahydro-1H-1,4-diazepin-5-on-1-yl)-1,4-dihydro-4-oxoquinoline-3-carboxylic acid]	0.1 (≈ 0.246 µM)	0.2 (≈ 0.492 µM)	0.006 (≈ 0.0148 µM)	0.006 (≈ 0.0148 µM)	0.39 (≈ 0.96 µM)	12.5 (≈ 30.8 µM)	0.012 (≈ 0.0295 µM)	0.006 (≈ 0.0148 µM)	0.1 (≈ 0.246 µM)	6.25 (≈ 15.4 µM)	0.1 (≈ 0.246 µM)	0.1 (≈ 0.246 µM)	3.13 (≈ 7.7 µM)	0.1 (≈ 0.246 µM)	0.1 (≈ 0.246 µM)	1.56 (≈ 3.84 µM)	0.39 (≈ 0.96 µM)	0.05 (≈ 0.123 µM)	0.1 (≈ 0.246 µM)	0.006 (≈ 0.0148 µM)	MIC [13]: 0.05 µg/mL (≈ 0.123 µM); MIC [14]: 0.024 µg/mL (≈ 0.0591 µM); MIC [15]: 0.024 µg/mL (≈ 0.0591 µM); MIC [16]: 0.05 µg/mL (≈ 0.123 µM); MIC [17]: 0.024 µg/mL (≈ 0.0591 µM)
Nc1c(F)c(N2CCNC(=O)CC2)c(Cl)c2c1c(=O)c(C(=O)O)cn2C1CC1 [1-10, 5-Amino-8-chloro-1-cyclopropyl-6-fluoro-7-(2,3,4,5,6,7-hexahydro-1H-1,4-diazepin-5-on-1-yl)-4-oxo-quinoline-3-carboxylic acid]	0.1 (≈ 0.245 µM)	0.2 (≈ 0.489 µM)	0.05 (≈ 0.122 µM)	0.012 (≈ 0.0294 µM)	0.2 (≈ 0.489 µM)	12.5 (≈ 30.6 µM)	0.006 (≈ 0.0147 µM)	0.006 (≈ 0.0147 µM)	0.05 (≈ 0.122 µM)	3.13 (≈ 7.66 µM)	0.1 (≈ 0.245 µM)	0.1 (≈ 0.245 µM)	6.25 (≈ 15.3 µM)	0.1 (≈ 0.245 µM)	0.024 (≈ 0.0587 µM)	1.56 (≈ 3.82 µM)	0.78 (≈ 1.91 µM)	0.1 (≈ 0.245 µM)	0.2 (≈ 0.489 µM)	0.012 (≈ 0.0294 µM)	MIC [13]: 0.012 µg/mL (≈ 0.0294 µM); MIC [14]: 0.024 µg/mL (≈ 0.0587 µM); MIC [15]: 0.012 µg/mL (≈ 0.0294 µM); MIC [16]: 0.024 µg/mL (≈ 0.0587 µM); MIC [17]: 0.024 µg/mL (≈ 0.0587 µM)
Nc1c(F)c(N2CCNC(=O)CC2)c(F)c2c1c(=O)c(C(=O)O)cn2C1CC1 [Compound No. 1-2, 5-Amino-1-cyclopropyl-6,8-difluoro-7-(2,3,4,5,6,7-hexahydro-1H-1,4-diazepin-5-on-1-yl)-1,4-dihydro-4-oxo-quinoline-3-carboxylic acid]	0.05 (≈ 0.127 µM)	0.2 (≈ 0.51 µM)	0.006 (≈ 0.0153 µM)	0.006 (≈ 0.0153 µM)	0.39 (≈ 0.994 µM)	6.25 (≈ 15.9 µM)	0.006 (≈ 0.0153 µM)	0.006 (≈ 0.0153 µM)	0.05 (≈ 0.127 µM)	3.13 (≈ 7.98 µM)	0.05 (≈ 0.127 µM)	0.05 (≈ 0.127 µM)	3.13 (≈ 7.98 µM)	0.05 (≈ 0.127 µM)	0.05 (≈ 0.127 µM)	0.78 (≈ 1.99 µM)	0.39 (≈ 0.994 µM)	0.05 (≈ 0.127 µM)	0.05 (≈ 0.127 µM)	0.012 (≈ 0.0306 µM)	MIC [13]: 0.05 µg/mL (≈ 0.127 µM); MIC [14]: 0.024 µg/mL (≈ 0.0612 µM); MIC [15]: 0.024 µg/mL (≈ 0.0612 µM); MIC [16]: 0.05 µg/mL (≈ 0.127 µM); MIC [17]: 0.012 µg/mL (≈ 0.0306 µM)
C[C@@H]1CN(c2c(F)c(N)c3c(=O)c(C(=O)O)cn(C4CC4)c3c2F)C[C@H](C)N1 [Spafloxacin, reference compound]	0.012 (≈ 0.0306 µM)	0.39 (≈ 0.994 µM)	0.006 (≈ 0.0153 µM)	0.024 (≈ 0.0612 µM)	1.56 (≈ 3.98 µM)	1.56 (≈ 3.98 µM)	0.05 (≈ 0.127 µM)	0.006 (≈ 0.0153 µM)	0.39 (≈ 0.994 µM)	1.56 (≈ 3.98 µM)	0.006 (≈ 0.0153 µM)	0.012 (≈ 0.0306 µM)	0.78 (≈ 1.99 µM)	0.012 (≈ 0.0306 µM)	0.2 (≈ 0.51 µM)	0.2 (≈ 0.51 µM)	0.1 (≈ 0.255 µM)	0.1 (≈ 0.255 µM)	0.05 (≈ 0.127 µM)	0.024 (≈ 0.0612 µM)	MIC [13]: 0.1 µg/mL (≈ 0.255 µM); MIC [14]: 0.05 µg/mL (≈ 0.127 µM); MIC [15]: 0.05 µg/mL (≈ 0.127 µM); MIC [16]: 0.1 µg/mL (≈ 0.255 µM); MIC [17]: 0.05 µg/mL (≈ 0.127 µM)

Reference: patent US5430028A, “5-aminoquinolone carboxylic acid derivative and antibacterial agent containing the same as active ingredient” (SS Pharmaceutical Co., Ltd., priority 1992, dated 1995)
